Assay: xn = mol fraction of the nth substance listed
Conditions: Liquid, Vibrating tube method

CCC(C)Cl (stereo unspecified) [2-chlorobutane] + CCCCCCC
mass density [kg/m3]
Conditions | 283.15 K | 293.15 K
100 kPa, x2 = 0.0524 | 870.08 | 859.09
100 kPa, x2 = 0.1018 | 857.33 | 846.5
100 kPa, x2 = 0.1968 | 834.23 | 823.7
100 kPa, x2 = 0.3006 | 810.89 | 800.7
100 kPa, x2 = 0.4029 | 789.62 | 779.7
100 kPa, x2 = 0.5017 | 770.58 | 760.98
100 kPa, x2 = 0.6008 | 752.78 | 743.44
100 kPa, x2 = 0.7023 | 735.82 | 726.75
100 kPa, x2 = 0.7977 | 720.94 | 712.09
100 kPa, x2 = 0.8986 | 706.28 | 697.66
100 kPa, x2 = 0.952 | 698.95 | 690.45
2000 kPa, x2 = 0.0524 | 872.12 | 861.28
2000 kPa, x2 = 0.1018 | 859.33 | 848.65
2000 kPa, x2 = 0.1968 | 836.28 | 825.79
2000 kPa, x2 = 0.3006 | 812.93 | 802.72
2000 kPa, x2 = 0.4029 | 791.64 | 781.78
2000 kPa, x2 = 0.5017 | 772.59 | 763.02
2000 kPa, x2 = 0.6008 | 754.76 | 745.47
2000 kPa, x2 = 0.7023 | 737.76 | 728.77
2000 kPa, x2 = 0.7977 | 722.86 | 714.07
2000 kPa, x2 = 0.8986 | 708.14 | 699.64
2000 kPa, x2 = 0.952 | 700.89 | 692.42
5000 kPa, x2 = 0.0524 | 875.14 | 864.55
5000 kPa, x2 = 0.1018 | 862.34 | 851.88
5000 kPa, x2 = 0.1968 | 839.19 | 828.97
5000 kPa, x2 = 0.3006 | 815.75 | 805.92
5000 kPa, x2 = 0.4029 | 794.46 | 784.93
5000 kPa, x2 = 0.5017 | 775.35 | 766.08
5000 kPa, x2 = 0.6008 | 757.49 | 748.48
5000 kPa, x2 = 0.7023 | 740.41 | 731.73
5000 kPa, x2 = 0.7977 | 725.51 | 716.99
5000 kPa, x2 = 0.8986 | 710.74 | 702.52
5000 kPa, x2 = 0.952 | 703.44 | 695.28
7000 kPa, x2 = 0.0524 | 877.15 | 866.63
7000 kPa, x2 = 0.1018 | 864.31 | 853.99
7000 kPa, x2 = 0.1968 | 841.13 | 831.06
7000 kPa, x2 = 0.3006 | 817.66 | 807.98
7000 kPa, x2 = 0.4029 | 796.31 | 786.88
7000 kPa, x2 = 0.5017 | 777.21 | 768.04
7000 kPa, x2 = 0.6008 | 759.32 | 750.4
7000 kPa, x2 = 0.7023 | 742.22 | 733.58
7000 kPa, x2 = 0.7977 | 727.32 | 718.82
7000 kPa, x2 = 0.8986 | 712.5 | 704.3
7000 kPa, x2 = 0.952 | 705.2 | 697.05
10000 kPa, x2 = 0.0524 | 880.01 | 869.74
10000 kPa, x2 = 0.1018 | 867.16 | 857.1
10000 kPa, x2 = 0.1968 | 844.01 | 834.15
10000 kPa, x2 = 0.3006 | 820.49 | 810.94
10000 kPa, x2 = 0.4029 | 799.08 | 789.81
10000 kPa, x2 = 0.5017 | 779.9 | 770.91
10000 kPa, x2 = 0.6008 | 761.96 | 753.22
10000 kPa, x2 = 0.7023 | 744.79 | 736.37
10000 kPa, x2 = 0.7977 | 729.85 | 721.59
10000 kPa, x2 = 0.8986 | 714.98 | 707.02
10000 kPa, x2 = 0.952 | 707.64 | 699.74
20000 kPa, x2 = 0.0524 | 889.1 | 879.38
20000 kPa, x2 = 0.1018 | 876.16 | 866.54
20000 kPa, x2 = 0.1968 | 852.83 | 843.5
20000 kPa, x2 = 0.3006 | 829.21 | 820.12
20000 kPa, x2 = 0.4029 | 807.66 | 798.87
20000 kPa, x2 = 0.5017 | 788.35 | –
20000 kPa, x2 = 0.6008 | 770.29 | –
20000 kPa, x2 = 0.7023 | 753.01 | –
20000 kPa, x2 = 0.7977 | 737.95 | –
20000 kPa, x2 = 0.8986 | 722.98 | –
20000 kPa, x2 = 0.952 | 715.57 | –
30000 kPa, x2 = 0.0524 | 897.39 | –
30000 kPa, x2 = 0.1018 | 884.45 | –
30000 kPa, x2 = 0.1968 | 860.93 | –
30000 kPa, x2 = 0.3006 | 837.18 | –
30000 kPa, x2 = 0.4029 | 815.5 | –
30000 kPa, x2 = 0.5017 | 796.06 | –
30000 kPa, x2 = 0.6008 | 777.85 | –
30000 kPa, x2 = 0.7023 | 760.42 | –
30000 kPa, x2 = 0.7977 | 745.22 | –
30000 kPa, x2 = 0.8986 | 730.14 | –
30000 kPa, x2 = 0.952 | 722.65 | –
40000 kPa, x2 = 0.0524 | 905.09 | –
40000 kPa, x2 = 0.1018 | 892.06 | –
40000 kPa, x2 = 0.1968 | 868.43 | –
40000 kPa, x2 = 0.3006 | 844.52 | –
40000 kPa, x2 = 0.4029 | 822.78 | –
40000 kPa, x2 = 0.5017 | 803.2 | –
40000 kPa, x2 = 0.6008 | 784.86 | –
40000 kPa, x2 = 0.7023 | 767.33 | –
40000 kPa, x2 = 0.7977 | 751.95 | –
40000 kPa, x2 = 0.8986 | 736.77 | –
40000 kPa, x2 = 0.952 | 729.23 | –
50000 kPa, x2 = 0.0524 | 912.23 | –
50000 kPa, x2 = 0.1018 | 899.1 | –
50000 kPa, x2 = 0.1968 | 875.41 | –
50000 kPa, x2 = 0.3006 | 851.37 | –
50000 kPa, x2 = 0.4029 | 829.44 | –
50000 kPa, x2 = 0.5017 | 809.74 | –
50000 kPa, x2 = 0.6008 | 791.3 | –
50000 kPa, x2 = 0.7023 | 773.63 | –
50000 kPa, x2 = 0.7977 | 758.16 | –
50000 kPa, x2 = 0.8986 | 742.88 | –
50000 kPa, x2 = 0.952 | 735.27 | –
60000 kPa, x2 = 0.0524 | 918.92 | –
60000 kPa, x2 = 0.1018 | 905.75 | –
60000 kPa, x2 = 0.1968 | 881.9 | –
60000 kPa, x2 = 0.3006 | 857.83 | –
60000 kPa, x2 = 0.4029 | 835.76 | –
60000 kPa, x2 = 0.5017 | 816 | –
60000 kPa, x2 = 0.6008 | 797.44 | –
60000 kPa, x2 = 0.7023 | 779.67 | –
60000 kPa, x2 = 0.7977 | 764.09 | –
60000 kPa, x2 = 0.8986 | 748.68 | –
60000 kPa, x2 = 0.952 | 741.04 | –
65000 kPa, x2 = 0.0524 | 922.13 | –
65000 kPa, x2 = 0.1018 | 908.95 | –
65000 kPa, x2 = 0.1968 | 885.12 | –
65000 kPa, x2 = 0.3006 | 860.95 | –
65000 kPa, x2 = 0.4029 | 838.88 | –
65000 kPa, x2 = 0.5017 | 819 | –
65000 kPa, x2 = 0.6008 | 800.38 | –
65000 kPa, x2 = 0.7023 | 782.58 | –
65000 kPa, x2 = 0.7977 | 766.97 | –
65000 kPa, x2 = 0.8986 | 751.48 | –
65000 kPa, x2 = 0.952 | 743.76 | –

From the NIST ThermoML archive (doi:10.1016/j.tca.2015.06.017)
